Reference: patent US12018059B2, “Human amylin analog polypeptides and methods of use” (Intarcia Therapeutics, Inc., priority 2018, dated 2024)
Like-named read-outs stand apart in the source and are kept apart here. Starred links: 1 amine or outer side, 2 acyl side, 3 side chain; linkers in the order of their positions; H or OH if unused. Positions of bridges follow the written chain, without caps; N, C: chain ends. Non-standard residues stand in square brackets, D forms with d. Residues, ends and D or L forms follow the SMILES beside them. Groups on a side chain read outwards from the residue. *: point of attachment. C20 diacid = O=C(O)CCCCCCCCCCCCCCCCCCC(=O)*; C18 diacid = O=C(O)CCCCCCCCCCCCCCCCC(=O)*; γGlu = O=C(O)[C@H](CCC(=O)[*:2])N[*:1]; AEEA = NCCOCCOCC(=O)O

How the values were obtained:
[1] = target: human amylin 3 receptor (hAMY3R) (Homo sapiens, UniProt O60896+P30988); assay: cAMP accumulation functional assay in HEK293-CNG cells expressing hAMY3R; format: cell-based
Procedure: (§1) In the presence of the non-specific cAMP/cGMP phosphodiesterase inhibitor 3-isobutyl-1-methylxanthine (IBMX), accumulating cAMP can be measured in vitro using common detection methods. Thus, it is possible to estimate an in vitro potency (pEC50) for peptides activating each of these receptors using fit dose-response curves for cAMP accumulation.
(§2) Cells were carried in growth media for no more than 10 passages prior to testing.
(§3) Peptides were serially diluted in the same buffer as above for each given assay condition. Two assay control solutions consisting of 50 mcM forskolin (cAMP system maximum) or assay buffer only (cAMP system minimum) were also prepared in the appropriate stimulation buffers. Five microliters of each peptide-concentration, or assay control was added to triplicate wells and incubated for thirty minutes at room temperature. During this incubation step a 4× europium labelled cAMP tracer solution and a 4× Ulight®-anti-cAMP solution (consisting of an anti-cAMP monoclonal antibody labelled with Ulight™ dye) was prepared according to the manufacturer's protocol (PerkinElmer LANCE Ultra cAMP kit). Following this incubation, 5 mcL europium labelled cAMP and 5 mcL Ulight anti-cAMP antibody was added to wells. The plate was covered with an adhesive cover to prevent evaporation and incubated for 60 minutes at room temperature in the dark. Plates were read on an Envision fluorescent plate reader (PerkinElmer).
(§4) Test values were first normalized to the forskolin induced cAMP system maximum and system minimum averaged values in Excel using the formula: (test value−system minavg)/(system maxavg−system minavg)*100. Normalized test values represent a baseline corrected percentage of the system maximum cAMP response induced by forskolin. Normalized data was analyzed from triplicate tests and used to estimate the EC50 for each peptide on each receptor. Data was fit in GraphPad Prism software (v7.04) using a 4-parameter logistic curve model: Y=Bottom+(Top−Bottom)/(1+10^((Log EC50−X))). The Hill slope was constrained to 1.0. EC50 values were converted to pEC50 values using the formula: pEC50=−Log (EC50).

[2] = target: T1, human calcitonin receptor (hCTR) (Homo sapiens, UniProt P30988); assay: cAMP accumulation functional assay in HEK293-CNG cells expressing hCTR; format: cell-based
T1 sequence (P30988 25-474): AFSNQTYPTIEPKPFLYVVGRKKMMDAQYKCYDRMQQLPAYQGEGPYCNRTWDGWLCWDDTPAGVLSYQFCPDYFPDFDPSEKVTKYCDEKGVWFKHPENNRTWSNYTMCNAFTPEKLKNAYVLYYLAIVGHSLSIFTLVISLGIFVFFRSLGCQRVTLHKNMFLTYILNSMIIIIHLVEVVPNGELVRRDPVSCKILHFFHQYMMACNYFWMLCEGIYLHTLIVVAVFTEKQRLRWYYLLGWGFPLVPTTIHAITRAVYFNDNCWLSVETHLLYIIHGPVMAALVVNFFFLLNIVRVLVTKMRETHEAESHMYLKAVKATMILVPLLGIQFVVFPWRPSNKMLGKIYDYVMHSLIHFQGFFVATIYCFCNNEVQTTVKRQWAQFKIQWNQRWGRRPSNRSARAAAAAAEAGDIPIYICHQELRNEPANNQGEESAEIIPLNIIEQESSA
Procedure: as §1, §2, §3, §4

[3] = in vivo; parameters: species or system Sprague-Dawley rats; conditions: rat, iv, 0.033 mg/kg
Summary of the method: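 Peptide plasma levels measured by UPLC-MS/MS (C18, product-ion monitoring) after protein precipitation or WCX SPE, calibrated in K2EDTA/protease-inhibitor rat plasma. Dosing in non-fasted male Sprague-Dawley rats (n=3): 0.033 mg/kg over 1 h by IV or SC infusion, or 0.3 mg/kg SC bolus; sampling up to 48 h.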

[4] = 0% HSA, read-out: pEC50 hAMY3R 0% HSA (converted)
[5] = 4% HSA, read-out: pEC50 hAMY3R 4% HSA (converted)
[6] = pEC50 hAMY3R 0.1% HSA, 0.1% HSA
[7] = hCTR 0% HSA, 0% HSA, read-out: pEC50 hCTR 0% HSA (converted)
[8] = hCTR 4% HSA, 4% HSA, read-out: pEC50 hCTR 4% HSA (converted)

Chain of human amylin 3 receptor (hAMY3R) (O60896 24-148, one chain of several): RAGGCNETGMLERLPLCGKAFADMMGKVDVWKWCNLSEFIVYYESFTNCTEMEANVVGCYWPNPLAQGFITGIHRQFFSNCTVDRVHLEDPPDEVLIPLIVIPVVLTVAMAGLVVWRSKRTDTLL

`CC[C@H](C)[C@H](NC(=O)[C@@H]1CCCN1C(=O)CNC(=O)[C@H](Cc1ccccc1)NC(=O)[C@H](CC(N)=O)NC(=O)[C@H](CC(N)=O)NC(=O)[C@H](CO)NC(=O)[C@H](CO)NC(=O)[C@H](CCCCN)NC(=O)[C@H](Cc1c[nH]cn1)NC(=O)[C@H](CC(C)C)NC(=O)[C@@H](CCCCNC(=O)CC[C@H](NC(=O)CC[C@H](NC(=O)COCCOCCNC(=O)CC[C@H](NC(=O)CCCCCCCCCCCCCCCCCCC(=O)O)C(=O)O)C(=O)O)C(=O)O)NC(=O)[C@H](CC(N)=O)NC(=O)[C@H](C)NC(=O)[C@H](CC(C)C)NC(=O)[C@H](CCCNC(=N)N)NC(=O)[C@H](CCC(N)=O)NC(=O)[C@@H](NC(=O)[C@H](C)NC(=O)[C@@H]1CSSC[C@H](NC(=O)[C@@H](N)CO)C(=O)N[C@@H](CC(N)=O)C(=O)N[C@@H]([C@@H](C)O)C(=O)N[C@@H](CO)C(=O)N[C@@H]([C@@H](C)O)C(=O)N1)[C@@H](C)O)C(=O)N[C@@H](CC(C)C)C(=O)N1CCC[C@H]1C(=O)N1CCC[C@H]1C(=O)N[C@H](C(=O)N[C@@H](CCCCN)C(=O)N[C@H](C(=O)NCC(=O)N[C@@H](CO)C(=O)N[C@@H](CCC(=O)O)C(=O)N[C@H](C(=O)N[C@@H](Cc1ccc(O)cc1)C(N)=O)[C@@H](C)O)C(C)C)[C@@H](C)O` [Compound A100] (H-SCNTSTCATQRLAN[dK]([γGlu-γGlu-AEEA-γGlu-C20 diacid])LHKSSNNFGPILPPTKVGSETY-NH2; disulfide 2-7; N-terminus assumed) showed an EC50 [1, 4] of 0.00794 nM, an EC50 [1, 5] of 25.1 nM and an EC50 [1, 6] of 1.58 nM. For the same compound, the EC50 [2, 7] was 0.0316 nM, the EC50 ([2]; hCTR 0.1% HSA, 0.1% HSA) was 7.94 nM and the EC50 [2, 8] was 79.4 nM. The Vd [3] was 0.14 L/kg, the clearance [3] was 4.75 mL/h/kg and the half-life [3] was 1280 min.
For `CC[C@H](C)[C@H](NC(=O)[C@@H]1CCCN1C(=O)CNC(=O)[C@H](Cc1ccccc1)NC(=O)[C@H](CC(N)=O)NC(=O)[C@H](CC(N)=O)NC(=O)[C@H](CO)NC(=O)[C@H](CO)NC(=O)[C@H](CCCCN)NC(=O)[C@H](Cc1c[nH]cn1)NC(=O)[C@H](CC(C)C)NC(=O)[C@H](CCC(=O)O)NC(=O)[C@H](CC(N)=O)NC(=O)[C@H](C)NC(=O)[C@H](CC(C)C)NC(=O)[C@H](CCCNC(=N)N)NC(=O)[C@H](CCC(N)=O)NC(=O)[C@@H](NC(=O)[C@H](C)NC(=O)[C@@H]1CSSC[C@H](NC(=O)[C@@H](N)CCCCNC(=O)CC[C@H](NC(=O)CC[C@H](NC(=O)COCCOCCNC(=O)COCCOCCNC(=O)CC[C@H](NC(=O)CCCCCCCCCCCCCCCCCCC(=O)O)C(=O)O)C(=O)O)C(=O)O)C(=O)N[C@@H](CC(N)=O)C(=O)N[C@@H]([C@@H](C)O)C(=O)N[C@@H](CO)C(=O)N[C@@H]([C@@H](C)O)C(=O)N1)[C@@H](C)O)C(=O)N[C@@H](CC(C)C)C(=O)N1CCC[C@H]1C(=O)N1CCC[C@H]1C(=O)N[C@H](C(=O)N[C@@H](CCCCN)C(=O)N[C@H](C(=O)NCC(=O)N[C@@H](CO)C(=O)N[C@@H](CCC(=O)O)C(=O)N[C@H](C(=O)N[C@@H](Cc1ccc(O)cc1)C(N)=O)[C@@H](C)O)C(C)C)[C@@H](C)O` [Compound A112] (H-K([γGlu-γGlu-AEEA-AEEA-γGlu-C20 diacid])CNTSTCATQRLANELHKSSNNFGPILPPTKVGSETY-NH2; disulfide 2-7), the EC50 [1, 4] was 0.00251 nM, the EC50 [1, 5] was 10 nM and the EC50 [1, 6] was 0.501 nM. For the same compound, the EC50 [2, 7] was 0.0126 nM, the EC50 ([2]; hCTR 0.1% HSA, 0.1% HSA) was 3.16 nM and the EC50 [2, 8] was 31.6 nM. The Vd [3] was 0.0998 L/kg, the clearance [3] was 2.45 mL/h/kg and the half-life [3] was 1960 min.
`CC[C@H](C)[C@H](NC(=O)[C@@H]1CCCN1C(=O)CNC(=O)[C@H](Cc1ccccc1)NC(=O)[C@H](CC(N)=O)NC(=O)[C@H](CC(N)=O)NC(=O)[C@H](CO)NC(=O)[C@H](CO)NC(=O)[C@H](CCCCN)NC(=O)[C@H](Cc1c[nH]cn1)NC(=O)[C@H](CC(C)C)NC(=O)[C@H](CCC(=O)O)NC(=O)[C@H](CC(N)=O)NC(=O)[C@H](C)NC(=O)[C@H](CC(C)C)NC(=O)[C@H](CCCNC(=N)N)NC(=O)[C@H](CCC(N)=O)NC(=O)[C@@H](NC(=O)[C@H](C)NC(=O)[C@@H]1CSSC[C@H](NC(=O)[C@@H](N)CCCCNC(=O)COCCOCCNC(=O)COCCOCCNC(=O)CC[C@H](NC(=O)CCCCCCCCCCCCCCCCC(=O)O)C(=O)O)C(=O)N[C@@H](CC(N)=O)C(=O)N[C@@H]([C@@H](C)O)C(=O)N[C@@H](CO)C(=O)N[C@@H]([C@@H](C)O)C(=O)N1)[C@@H](C)O)C(=O)N[C@@H](CC(C)C)C(=O)N1CCC[C@H]1C(=O)N1CCC[C@H]1C(=O)N[C@H](C(=O)N[C@@H](CCCCN)C(=O)N[C@H](C(=O)NCC(=O)N[C@@H](CO)C(=O)N[C@@H](CCC(=O)O)C(=O)N[C@H](C(=O)N[C@@H](Cc1ccc(O)cc1)C(N)=O)[C@@H](C)O)C(C)C)[C@@H](C)O` [Compound A113] (H-K([AEEA-AEEA-γGlu-C18 diacid])CNTSTCATQRLANELHKSSNNFGPILPPTKVGSETY-NH2; disulfide 2-7) showed an EC50 [1, 5] of 1 nM, an EC50 [1, 6] of 0.0251 nM and an EC50 [2, 7] of 0.00501 nM. For the same compound, the EC50 ([2]; hCTR 0.1% HSA, 0.1% HSA) was 0.2 nM and the EC50 [2, 8] was 7.94 nM.
Compound `CC[C@H](C)[C@H](NC(=O)[C@@H]1CCCN1C(=O)CNC(=O)[C@H](Cc1ccccc1)NC(=O)[C@H](CC(N)=O)NC(=O)[C@H](CC(N)=O)NC(=O)[C@H](CO)NC(=O)[C@H](CO)NC(=O)[C@H](CCCCN)NC(=O)[C@H](Cc1c[nH]cn1)NC(=O)[C@H](CC(C)C)NC(=O)[C@H](CCC(=O)O)NC(=O)[C@H](CC(N)=O)NC(=O)[C@H](C)NC(=O)[C@H](CC(C)C)NC(=O)[C@H](CCCNC(=N)N)NC(=O)[C@H](CCC(N)=O)NC(=O)[C@@H](NC(=O)[C@H](C)NC(=O)[C@@H]1CSSC[C@H](NC(=O)[C@@H](N)CCCCNC(=O)CC[C@H](NC(=O)CCCCCCCCCCCCCCCCCCC(=O)O)C(=O)O)C(=O)N[C@@H](CC(N)=O)C(=O)N[C@@H]([C@@H](C)O)C(=O)N[C@@H](CO)C(=O)N[C@@H]([C@@H](C)O)C(=O)N1)[C@@H](C)O)C(=O)N[C@@H](CC(C)C)C(=O)N1CCC[C@H]1C(=O)N1CCC[C@H]1C(=O)N[C@H](C(=O)N[C@@H](CCCCN)C(=O)N[C@H](C(=O)NCC(=O)N[C@@H](CO)C(=O)N[C@@H](CCC(=O)O)C(=O)N[C@H](C(=O)N[C@@H](Cc1ccc(O)cc1)C(N)=O)[C@@H](C)O)C(C)C)[C@@H](C)O` [Compound A119] (H-K([γGlu-C20 diacid])CNTSTCATQRLANELHKSSNNFGPILPPTKVGSETY-NH2; disulfide 2-7; N-terminus assumed) has an EC50 [1, 4] of 0.00126 nM, an EC50 [1, 5] of 3.16 nM and an EC50 [1, 6] of 0.0631 nM. It also gave an EC50 [2, 7] of 0.00631 nM, an EC50 ([2]; hCTR 0.1% HSA, 0.1% HSA) of 0.316 nM and an EC50 [2, 8] of 12.6 nM.
